Experimental data reported in patent US20120225092A1, “COSMETIC USE OF SKIN CELL AUTOPHAGY ACTIVATORS” (SOCIETE INDUSTRIELLE LIMOUSINE D'APPLICATION BIOLOGIQUE …, priority 2008, published 2012).
Read-outs that look alike come from different tables or passages of the source.

How the values were obtained:
[1] = tested on: MAP-LC3
Procedure: (§1) The protocol is as follows: • Cultivation of cells for 24 hours in a complete culture medium. • Removal of the culture medium and replacement with the non-nutritive culture medium that contains the oxidizing agent H2O2 for 3 hours (different doses of H2O2—125 μM and/or 250 μM—have been tested). • Removal of the oxidizing agent and the non-nutritive culture medium, replacement by a complete culture medium without an oxidizing agent. • Evaluation of the expression of MAP-LC3, the phosphorylated protein p53, or the protein DRAM after cellular recovery. Several recovery times have been selected (0.5 hour, 1 hour, 1.5 hours, or 2 hours of recovery).
It is possible to evaluate the autophagy of stressed cutaneous cells by visualizing the expression of the protein MAP-LC3 by immunofluorescent marking.
The evaluation of the expression MAP-LC3 was analyzed under these moderate stress conditions (125 μM and 250 μM of hydrogen peroxide H2O2) on HaCaT keratinocyte cultures and on normal human keratinocytes. With the immunomarking results being qualitative, several levels of expression of ATG5-12 were defined: […]

[2] = tested on: phosphorylated protein p53; conditions: H2O2 125 μM, relative to control without stress
Procedure: as §1
It is also possible to evaluate the autophagy of stressed cutaneous cells by visualizing the expression of the phosphorylated protein p53 by Western Blott.
The evaluation of the expression of the phosphorylated protein p53 has therefore been analyzed under these moderate stress conditions with 125 μM of H2O2 on HaCaT keratinocyte cultures and on normal human keratinocytes. The expression of phosphorylated p53 is presented in the table below in percentage relative to the control (without stress).

[3] = tested on: protein DRAM; conditions: H2O2 125 μM, relative to control without stress
Procedure: as §1
It is also possible to evaluate the autophagy of stressed cutaneous cells by visualizing the expression of the protein DRAM by Western Blott.
The evaluation of the expression of DRAM was therefore analyzed under these moderate stress conditions with 125 μM of H2O2 on HaCaT keratinocyte cultures and on normal human keratinocytes. The expression of DRAM is presented in the table below in percentage relative to the control (without stress).

[4] = tested on: MAP-LC3; conditions: relative to control without stress
Procedure: This study has as its objective to compare the autophagy level of young cells (from donors with a mean age of 26 years) and aged cells (from donors with a mean age of 70 years) that are subjected to the same oxidative and nutritive stresses.
The evaluation of the autophagy level was considered by the analysis of the expression of the protein MAP-LC3 by Western Blott.
The protocol that is put into place is as follows: • Cultures of so-called young or aged cells for 24 hours in the complete culture medium, • Removal of the complete culture medium, replacement with the non-nutritive culture medium that contains the oxidizing agent H2O2 for 3 hours at different doses, • Removal of the oxidizing agent, replacement by the complete culture medium without an oxidizing agent, • Evaluation of the expression of MAP-LC3 after cellular recovery.

OO [H2O2, hydrogen peroxide]
Expression of MAP-LC3 ([1]; H2O2 125 μM for 3 hours in non-nutritive medium, recovery time 0.5 hour, HaCaT and normal human keratinocytes): ++
Expression of MAP-LC3 ([1]; H2O2 125 μM for 3 hours in non-nutritive medium, recovery time 1 hour): ++
Expression of MAP-LC3 ([1]; H2O2 125 μM for 3 hours in non-nutritive medium, recovery time 1.5 hours): +++
Expression of MAP-LC3 ([1]; H2O2 125 μM for 3 hours in non-nutritive medium, recovery time 2 hours): ++
Expression of MAP-LC3 ([1]; H2O2 250 μM for 3 hours in non-nutritive medium, recovery time 0.5 hour): ++
Expression of MAP-LC3 ([1]; H2O2 250 μM for 3 hours in non-nutritive medium, recovery time 1 hour): +++
Expression of MAP-LC3 ([1]; H2O2 250 μM for 3 hours in non-nutritive medium, recovery time 1.5 hours): ++
Expression of MAP-LC3 ([1]; H2O2 250 μM for 3 hours in non-nutritive medium, recovery time 2 hours): +
Phosphorylated Expression p53 (%) ([2]; recovery time 0.5 hour): 221%
Phosphorylated Expression p53 (%) ([2]; recovery time 1 hour): 140%
Phosphorylated Expression p53 (%) ([2]; recovery time 2 hours): 128%
Expression of DRAM (%) ([3]; recovery time 0.5 hour): 120%
Expression of DRAM (%) ([3]; recovery time 1 hour): 180%
Expression of DRAM (%) ([3]; recovery time 1.5 hours): 390%
Expression of DRAM (%) ([3]; recovery time 2 hours): 200%
Expression of MAP-LC3 On Aged Cells ([4]; H2O2 125 μM for 3 hours, aged cells (donors mean age 70 years)): 138%
Expression of MAP-LC3 On Young Cells ([4]; H2O2 125 μM for 3 hours, young cells (donors mean age 26 years)): 172%
Expression of MAP-LC3 On Aged Cells ([4]; H2O2 250 μM for 3 hours, aged cells): 187%
Expression of MAP-LC3 On Young Cells ([4]; H2O2 250 μM for 3 hours, young cells): 322%
Expression of MAP-LC3 On Aged Cells ([4]; H2O2 400 μM for 3 hours, aged cells): 135%
Expression of MAP-LC3 On Young Cells ([4]; H2O2 400 μM for 3 hours, young cells): 168%
Expression of MAP-LC3 On Aged Cells ([4]; H2O2 600 μM for 3 hours, aged cells): 96%
Expression of MAP-LC3 On Young Cells ([4]; H2O2 600 μM for 3 hours, young cells): 143%
Expression of MAP-LC3 On Aged Cells ([4]; H2O2 1000 μM for 3 hours, aged cells): 92%
Expression of MAP-LC3 On Young Cells ([4]; H2O2 1000 μM for 3 hours, young cells): 117%
